According to patent US20050158425A1, “Thin mouthfeel calcium-fortified beverage containing calcium lactate gluconate citrate” (PURAC BIOCHEM BV, priority 2003, published 2005):

Key:
[1] = Dissolution rate of calcium-fortified beverages by conductivity; type: physicochemical; details: 20° C.
Method: The dissolution rates of calcium lactate gluconate (ratio Ca lactate:Ca gluconate 80/20) and calcium lactate gluconate citrate (in a ratio calcium lactate:calcium gluconate:calcium citrate of 12.7:47.8:39.5) beverages were determined by measuring the conductivity and calculating the dissolution rate from the conductivity indices. Said beverages contained 10, and 30% R.D.I respectively in water at 20° C., 30% in apple juice at 20° C. and 10% in cranberry juice at 20° C.

[2] = Hygroscopicity of powdered samples; type: physicochemical; details: for water pick up (hygroscopicity): 20° C., 60% relative humidity, 21 days, powdered sample; for state of powdered sample (hygroscopicity): 35° C., 70% relative humidity
Method: The hygroscopicities of powdered samples of calcium lactate gluconate citrate (in a ratio calcium lactate:calcium gluconate:calcium citrate of 12.7:47.8:39.5) and calcium lactate gluconate (lactate/gluconate ratio 20/80) were measured at 20° C. at 60% relative humidity and at 35° C. at 70% relative humidity. At 20° C. at 60% relative humidity both samples hardly pick up any water (about 1%) for 21 days.

SMILES | Dissolution time in seconds (at conductivity 99.5) ([1]; Apple juice (30% RDI)) | Dissolution time in seconds (at conductivity 99.5) ([1]; Cranberry juice (10% RDI)) | Dissolution time in seconds (at conductivity 99.5) ([1]; Water (10% RDI)) | water pick up (hygroscopicity) [2] | state of powdered sample (hygroscopicity) [2] | hygroscopicity ([2]; at increased temperatures)
CC(O)C(=O)[O-].O=C([O-])[C@H](O)[C@@H](O)[C@H](O)[C@H](O)CO.[Ca+2] [Calcium lactate gluconate, calcium lactate gluconate] | 25 s | 34 s | 35 s |  |  | 
CC(O)C(=O)[O-].O=C([O-])[C@H](O)[C@@H](O)[C@H](O)[C@H](O)CO.[Ca+2] [calcium lactate gluconate (20/80), calcium lactate gluconate] |  |  |  | about 1% | completely liquefied within 2 days | 
CC(O)C(=O)O.O=C(O)[C@H](O)[C@@H](O)[C@H](O)[C@H](O)CO.O=C([O-])CC(O)(CC(=O)[O-])C(=O)O.[Ca+2] [calcium lactate gluconate citrate] | 30 s | 27 s | 23 s | about 1% | still had the powdered structure and appeared unchanged after 20 days | very low hygroscopicity
